Data from the supplement of paper PMC10883282.
± gives the standard deviation of the averaged measurements.

Test system: SK-ES-1
Experiment: relative viability vs DMSO control (72 h) (fraction); higher = more viable cells
How it was run: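 Sarcoma cell lines were plated in 384 wells to reach 80–90% confluence, treated after 24 h with 2.5 µl of serially diluted compound and held 72 h at 37 °C, 5% CO2. Relative viability was taken as percent growth from ATPLite readings, averaged over up to triplicate wells. The values were rescaled so that 1 marks full and 0 marks none.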

SMILES	relative viability (2 pM)	relative viability (5 pM)	relative viability (15 pM)	relative viability (50 pM)	relative viability (0.00014 µM)	relative viability (0.00041 µM)	relative viability (0.0012 µM)	relative viability (0.0037 µM)	relative viability (0.011 µM)	relative viability (200 fM)	relative viability (600 fM)	relative viability (0.00017 µM)	relative viability (0.00051 µM)	relative viability (0.00152 µM)	relative viability (0.00457 µM)	relative viability (0.01372 µM)	relative viability (0.04115 µM)	relative viability (0.1235 µM)	relative viability (0.3704 µM)	relative viability (1.111 µM)	relative viability (3.333 µM)	relative viability (10 µM)
COc1cc2c(cc1O)CCN[C@]21CS[C@@H]2c3c(OC(C)=O)c(C)c4c(c3[C@H](COC1=O)N1[C@@H]2[C@H]2c3c(cc(C)c(OC)c3O)C[C@@H]([C@@H]1O)N2C)OCO4 [Trabectedin]	0.945 ± 0.051	0.859 ± 0.046	0.643 ± 0.086	0.388 ± 0.069	0.169 ± 0.019	0.0592 ± 0.008	0.00217 ± 0.0018	3.33e-05 ± 0.00035	0.0054 ± 0.0013	1.02 ± 0.063	0.938 ± 0.031											
C=CC(=O)Nc1cccc(Oc2nc(Nc3ccc(N4CCN(C)CC4)cc3)nc3ccsc23)c1 [Olmutinib]												0.979 ± 0.049	1.029 ± 0.0089	0.999 ± 0.047	1.03 ± 0.028	1.03 ± 0.036	1.018 ± 0.0064	1.05 ± 0.022	1.05 ± 0.051	0.996 ± 0.059	0.921 ± 0.011	0.339 ± 0.041
CC(C)NC(=O)C1CCC(n2c(NC(=O)c3ccc(F)cc3)nc3ccc(CN4CCC(C(C)(C)O)CC4)cc32)CC1 (stereo not drawn) [Belizatinib]												1.03 ± 0.038	1.02 ± 0.041	1.06 ± 0.031	1.05 ± 0.029	1.05 ± 0.039	1.08 ± 0.032	0.943 ± 0.065	0.633 ± 0.031	0.311 ± 0.013	0.208 ± 0.01	0.0946 ± 0.0023
CCN1CCN(Cc2ccc(Nc3ncc(F)c(-c4cc(F)c5nc(C)n(C(C)C)c5c4)n3)nc2)CC1 [Abemaciclib]												1.03 ± 0.032	1.04 ± 0.027	0.995 ± 0.031	1 ± 0.052	0.922 ± 0.055	0.728 ± 0.018	0.481 ± 0.035	0.413 ± 0.012	0.38 ± 0.0066	0.346 ± 0.01	0.00807 ± 0.00042
COc1c(OCCCN2CCOCC2)ccc2c1N=C(NC(=O)c1cnc(N)nc1)N1CCN=C21 [Copanlisib]												1.02 ± 0.022	1.07 ± 0.036	1.01 ± 0.021	0.808 ± 0.019	0.629 ± 0.015	0.4325 ± 0.0023	0.3049 ± 0.0025	0.214 ± 0.016	0.15 ± 0.0035	0.0822 ± 0.0034	0.0455 ± 0.0028
Cc1nc(-c2cn3c(n2)-c2ccc(-c4cnn(C(C)(C)C(N)=O)c4)cc2OCC3)n(C(C)C)n1 [Taselisib]												0.973 ± 0.069	0.984 ± 0.066	0.985 ± 0.013	0.994 ± 0.028	0.899 ± 0.074	0.761 ± 0.038	0.541 ± 0.045	0.41 ± 0.012	0.348 ± 0.017	0.288 ± 0.012	0.22127 ± 0.00015
O=C(Cc1ccc(-c2ccc(OCCN3CCOCC3)cc2)cn1)NCc1ccccc1 [KX2-391]												1.07 ± 0.02	1.11 ± 0.035	1.05 ± 0.059	1.07 ± 0.026	1.05 ± 0.032	0.235 ± 0.039	0.024 ± 0.0039	0.0226 ± 0.00042	0.0192 ± 0.0041	0.0176 ± 0.0029	0.0223 ± 0.0021
C[C@@H]1COCCN1c1cc(-c2ccnn2C)c2ccnc(-c3ccn[nH]3)c2n1												1.03 ± 0.031	1.05 ± 0.03	1.03 ± 0.052	1.09 ± 0.055	1.05 ± 0.039	0.856 ± 0.024	0.562 ± 0.037	0.285 ± 0.0067	0.156 ± 0.0046	0.101 ± 0.0046	0.112 ± 0.0035
Cc1cnc(Nc2ccc(OCCN3CCCC3)cc2)nc1Nc1cccc(S(=O)(=O)NC(C)(C)C)c1 [Fedratinib]												0.99 ± 0.063	1.03 ± 0.045	1.047 ± 0.01	1.06 ± 0.028	1.04 ± 0.016	1.03 ± 0.023	0.859 ± 0.067	0.489 ± 0.014	0.123 ± 0.01	0.0173 ± 0.002	0.0056 ± 0.00035
CC(C)N1CCN(Cc2cnc(-c3cc(-c4cccc5[nH]ccc45)cc4[nH]ncc34)o2)CC1 [Nemiralisib]												0.934 ± 0.039	0.915 ± 0.03	0.945 ± 0.034	0.932 ± 0.035	0.985 ± 0.068	0.957 ± 0.041	0.977 ± 0.026	0.961 ± 0.055	0.931 ± 0.04	0.76 ± 0.027	0.114 ± 0.053
Cc1ccc(NC(=O)c2ccc(CN3CCN(C)CC3)cc2)cc1Nc1nc(-c2cccnc2)cs1 [Masitinib]												1 ± 0.018	0.9842 ± 0.008	0.999 ± 0.032	1.06 ± 0.013	0.981 ± 0.033	1.01 ± 0.017	1 ± 0.042	0.93 ± 0.05	0.817 ± 0.039	0.5209 ± 0.0016	0.138 ± 0.012
CCc1cc2c(cc1N1CCC(N3CCOCC3)CC1)C(C)(C)c1[nH]c3cc(C#N)ccc3c1C2=O [Alectinib]												1 ± 0.048	1.04 ± 0.023	1.07 ± 0.025	1.07 ± 0.025	1.02 ± 0.031	1.03 ± 0.02	1.06 ± 0.084	1.01 ± 0.068	1.08 ± 0.056	1.04 ± 0.035	0.915 ± 0.068
COc1cc2nccc(Oc3ccc(NC(=O)Nc4cc(C)on4)c(Cl)c3)c2cc1OC [Tivozanib]												1.02 ± 0.058	1.02 ± 0.019	1.03 ± 0.065	1.04 ± 0.028	1.11 ± 0.021	1.07 ± 0.021	1.08 ± 0.06	1.08 ± 0.023	1.06 ± 0.041	0.973 ± 0.035	0.518 ± 0.018
